One assay deals with BALB/c mice. As to the kind of experiment: Adoptive transfer delayed type hypersensitivity (oxazolone) in mice. It counts as in vivo, mouse. The following applies: for reduction of inflammation (swelling diameter at challenge site), initial study: 6 mg/kg/day subcutaneously by implanted pump for 24 hours, ear swelling 24 hours after challenge, FIG. 5. The method, then: An adoptive transfer delayed-type hypersensitivity murine model has been developed using splenic T cells primed to oxazolone. This model is described in Elices et al., Clin. Exp. Rheum., 11(Suppl. 8):577-580 (1993), whose procedures were followed here.
Thus, BALB/c mice were shaved on the belly and painted (50 μl on the belly and 5 μl on each paw) with three percent oxazolone in acetone/olive oil (4:1) at days zero and 1. At day 5, the mice were sacrificed, their spleens removed, and splenic T cells were obtained via nylon wool columns.
Normal saline or saline containing 25×10^6 /animal of the oxazolone-immune T cells were separately injected into naive mice. The mice were then challenged by painting 10 μl of 2 percent oxazolone onto one ear each. All procedures were carried out under sterile conditions and in endotoxin-free buffers.
Prior to challenge or saline injection, the mice were implanted with pumps that subcutaneously administered normal saline, normal saline containing the compound, Compound ID No. 896.52, N-phenylacetyl-Leu-Asp-Phe-D-Pro-NH2, or normal saline containing a compound with a scrambled sequence continually at 6 mg/kg/day for a 24-hour time period. The swelling diameter at the site of challenge or saline injection was measured with a microcaliper 24 hours thereafter.
An expanded study was carried out as described above except that a scrambled compound control was not used as a control for further inhibitor compounds of Table 1 with larger groups of mice. Statistical analyses were carried out versus injection of vehicle alone.

The test system of assay [1] is New Zealand white rabbits. As to the kind of experiment: Rabbit heterotopic cardiac allograft model. As to Expression on Coronary Arteries: ICAM-1: key: -: negative; ±: minimal; +: little; ++: moderately abundant; +++: very abundant. As to Expression on Coronary Arteries: Macrophages: key: -: negative; ±: minimal; +: little; ++: moderately abundant; +++: very abundant. As to Expression on Coronary Arteries: T cells: key: -: negative; ±: minimal; +: little; ++: moderately abundant; +++: very abundant. As to Expression on Coronary Arteries: Total Fibronectin: key: -: negative; ±: minimal; +: little; ++: moderately abundant; +++: very abundant. It counts as in vivo. The conditions noted are these: for Expression on Coronary Arteries: ICAM-1 / Expression on Coronary Arteries: Macrophages / Expression on Coronary Arteries: T cells / Expression on Coronary Arteries: Total Fibronectin / Expression on Coronary Arteries: VCAM-1 / Expression on Coronary Arteries: MHC Class II: 1 mg/kg s.c., allograft, 7 to 8 days; for Expression on Coronary Arteries: MHC Class II: immunohistochemistry. From the text:
New Zealand white rabbit SPF hearts were allografted into the necks of similar rabbits to assay a graft-vs-host immunorejection model and the affect of a contemplated compound on that immunoinflammatory response.
New Zealand white female rabbits (Charles River Lab., Saint Laurent, Quebec), between 3.5 and 4 kg underwent heterotopic cardiac transplant following an experimental protocol previously described [Alonso et al., Am. J. Pathol., 87:415-442 (1977); Clausell et al., Circulation, 89:2768-2779 (1994)]. The animals were unselected to favor an HLA-mismatch, the host rabbits were Pasteurella-free and the donors, outbred animals. Both host and donor rabbits were fed Purina 5321-0.5 percent cholesterol diet (Research Diets Inc., New Brunswick, N.J.), a strategy that has proven useful in accelerating the process of allograft arteriopathy [Alonso et al., Am. J. Pathol., 87:415-442 (1977)]. The diet was commenced four days prior to the transplant and continued in the recipient of the transplant until the completion of the experimental period.
The technique of heterotopic cardiac transplantation has been previously described [Clausell et al., Circulation, 89:2768-2779 (1994)]. Briefly, a vertical incision was performed in the anterior aspect of the neck of the recipient rabbit and the left common carotid artery and the ipsilateral external jugular vein were isolated. The cardiac allograft was placed in the neck by anastomosing the aorta end-to-side to the recipient's carotid artery and the pulmonary end-to-side to the recipient's external jugular vein, following a total period of ischemia for the donor hearts of approximately 30 minutes. Postoperative care was in compliance with the Principles of Laboratory Animal Care formulated by the Canadian National Society for Medical Research.
Beginning the day of the transplant, the animals were randomized and treated with either scrambled compound (control group) at 1 mg/kg s.c. or the inhibitor compound at 1 mg/kg s.c. The doses of the compounds were empirically extrapolated to the in vivo model based on preliminary in vitro studies, of Table 1. No other immunosuppression therapy was administered. The grafts were monitored daily by palpation and maintained for 7 to 8 days, a previously described endpoint that was associated with myocardial rejection (impaired cardiac contractility) and development of the allograft arteriopathy in this model [Clausell et al., Circulation, 89:2768-2779 (1994)]. A total of fourteen animals were studied in the control (n=7) and treated (n=7) groups.
The animals were sacrificed using a lethal dose of euthanol (480 mg i.v.) (MTC Pharmaceutical, Cambridge, ON), host and donor hearts were removed, and the coronary arteries were perfused with saline through the aorta, followed by light fixation by perfusion with 2 percent paraformaldehyde (Sigma, St, Louis, Mo.). […] Different sections of the hearts were either saved in 10 percent formalin (BDH Inc., Toronto, ON) for light microscopy studies or immediately frozen in O.T.C. Compound Tissue Tek (Miles Inc., Elkart, Ind.) for specific immunohistochemistry studies.
Tissue specimens from the donor hearts were stained with hematoxylin:eosin for histological grading of rejection according to a modified Billingham's criteria [Billingham, Hum. Pathol., 10:367-386 (1979)]. The sections were graded by a pathologist without knowledge of whether the donor hearts came from control or inhibitor compound treated animals.
Three different paraffin-embedded tissue sections from host and donor hearts from both control and treated rabbits were stained by the Movat pentachrome method for light microscopy. Morphometric analysis was performed using a Zeiss microscope attached to a computer-generated video analysis system (Perceptics Inc., NuVision software), as described in Clausell et al., Circulation, 89:2768-2779 (1994). […]

The next assay concerns asthmatic sheep. As to the kind of experiment: Treatment of asthmatic sheep (Ascaris suum antigen, double blind cross-over). The class given is in vivo. The conditions noted are these: for PC400, carbachol dosage required to increase SRL 4-fold: 24 hours after challenge, pre-challenge values about 20-23 BU; for specific lung resistance (SRL) after challenge: nebulized 1 mg/kg twice a day for three days, 0.5 hours prior to and four hours post challenge on day 4, FIG. 7. As for the experimental part: Six asthmatic sheep were treated in a double blind cross-over study. […] This study was carried out generally as described in Abraham et al., J. Clin. Invest., 93:776-787 (1994).
The inhibitor compound used here was Compound ID No. 896.52, N-phenylacetyl-Leu-Asp-Phe-D-Pro-NH2, with a control compound that comprised the previously described compound having the same residues in a scrambled sequence. The vehicle for the nebulized compounds was phosphate-buffered saline. The compounds were administered at a dose of 1 mg/kg each, twice a day for three days prior to challenge, as well as 0.5 hours prior to and four hours post challenge on day 4. Because this was a crossover study, each animal received one or the other treatment, followed by a rest and then the other treatment. Each animal therefore served as its own control.
Post challenge airway responsiveness was also assayed. Here, specific lung resistance, SRL, returned to baseline values 24 hours after challenge, however, the sheep were hyperresponsive to inhaled carbachol at that time.

The structures appear in SMILES notation. Square brackets hold non-standard residues; d marks the D form. Peptide text beside a SMILES is read from it. * marks the point of attachment. PhAc = O=C(Cc1ccccc1)*

Turning to `CC(C)C[C@H](NC(=O)[C@H](CC(=O)O)NC(=O)Cc1ccccc1)C(=O)N[C@@H](Cc1ccccc1)C(=O)N1CCC[C@@H]1C(N)=O` [N-phenylacetyl-Asp-Leu-Phe-D-Pro-NH2, reference compound] (PhAc-DLF[dP]-NH2), the “reduction of inflammation (swelling diameter at challenge site), initial study” value in the assay on BALB/c mice was “no reduction of inflammation”. For the same compound, in assay [1], the “Expression on Coronary Arteries: ICAM-1” value is listed as “+”, the “Expression on Coronary Arteries: Macrophages” value was “+”, the “Expression on Coronary Arteries: T cells” value was “++” and the “Expression on Coronary Arteries: Total Fibronectin” value is “++”. In addition, in assay [1], the “Expression on Coronary Arteries: VCAM-1” value is recorded as “+”, the “Expression on Coronary Arteries: MHC Class II” value is “++”, the “Baseline (rabbit own host heart) of incidence of intimal thickening” value worked out at 1% and the “Baseline (rabbit own host heart) of severity of intimal thickening” value is 12%. Besides, in the assay on asthmatic sheep, the “PC400, carbachol dosage required to increase SRL 4-fold” value is on record as “about 12 BU” and the “specific lung resistance (SRL) after challenge” value is “had an increase in that pulmonary function”.
For `CC(C)C[C@H](NC(=O)Cc1ccccc1)C(=O)N[C@@H](CC(=O)O)C(=O)N[C@@H](Cc1ccccc1)C(=O)N1CCC[C@@H]1C(N)=O` [896.52, N-phenylacetyl-Leu-Asp-Phe-D-Pro-NH2] (PhAc-LDF[dP]-NH2), the “reduction of inflammation (swelling diameter at challenge site), initial study” value with BALB/c mice is reported as “reduced this type of CS-1/VLA-4-mediated immunoinflammation”. Moreover, the “Percent Inhibition of post-challenge swelling, expanded study” value in the assay on BALB/c mice (versus vehicle alone, implanted pump, 24 hours) is on record as 36%. Besides, in assay [1], the “Expression on Coronary Arteries: ICAM-1” value was “±”, the “Expression on Coronary Arteries: Macrophages” value is reported as “±”, the “Expression on Coronary Arteries: T cells” value was “±” and the “Expression on Coronary Arteries: Total Fibronectin” value was “±”. In assay [1], the “Expression on Coronary Arteries: VCAM-1” value is “±”, the “Expression on Coronary Arteries: MHC Class II” value is listed as “±”, the “Baseline (rabbit own host heart) of incidence of intimal thickening” value turned out to be 12% and the “Baseline (rabbit own host heart) of severity of intimal thickening” value is recorded as 12%. Moreover, in the assay on asthmatic sheep, the “PC400, carbachol dosage required to increase SRL 4-fold” value is on record as “about 27 BU” and the “specific lung resistance (SRL) after challenge” value is reported as “less of a change from baseline specific lung resistance”.
